From PMC6270304, “Synthesis, Structure and Cytotoxic Activity of New Acetylenic Derivatives of Betulin” (Molecules, 2013)
Values after ≈ are worked out from the molar mass of the structure shown.

Columns and labels:
[1] = tested on: T47D (human breast cancer); experiment: Antiproliferative assay in vitro (SRB); format: cell-based; details: for IC50: Homo sapiens, T47D, read-out: Cytotoxic activity IC50, Human T47D
Experimental: (§1) Cytotoxic activities of all newly synthesized compounds including betulin (1) were tested in SRB or MTT (in the case of leukemia cells) assay for their antiproliferative activity in vitro against three human cancer cell lines: SW707 (colorectal adenocarcinoma), CCRF/CEM (leukemia), T47D (breast cancer), and murine leukemia P388 as well as Balb3T3 normal fibroblasts cell lines. […] A value of less than 4 μg/mL was considered as an antiproliferative activity criterion for synthetic compounds [31].
(§2) The following established in vitro cell lines were applied: SW707 (human colorectal adenocarcinoma), CCRF/CEM (human leukemia), T47D (human breast cancer), P388 (mouse leukemia) and Balb3T3 (normal mouse fibroblasts). All lines were obtained from the American Type Culture Collection (Rockville, MD, USA) and maintained at the Cell Culture Collection of the Institute of Immunology and Experimental Therapy (Wroclaw, Poland).
(§3) Twenty-four hours before addition of the tested agents, the cells were plated in 96-well plates (Sarstedt, Numbrecht, Germany) at a density of 10^4 cells per well in 100 μL of culture medium. The cells were cultured in the opti-MEM medium supplemented with 2 mM glutamine (Gibco, Grand Island, NY, USA), streptomycin (50 μg/mL), penicillin (50 U/mL) (both antibiotics from Polfa, Tarchomin, Poland) and 5% fetal calf serum (Gibco). The cell cultures were maintained at 37 °C in humid atmosphere saturated with 5% CO2.
(§4) The compounds were dissolved in DMSO and culture medium (1:9) to the concentration of 1 mg/mL, and subsequently diluted in culture medium to reach the required concentrations (ranging from […]).
(§5) The in vitro cytotoxic effect of all agents was examined using the SRB assay for adherent cells and MTT assay for leukemia cells as described by Wietrzyk et al.. Each compound in given concentration was tested in triplicates in each experiment, which was repeated 3–5 times.

[2] = tested on: SW707 (human colorectal adenocarcinoma); experiment: Antiproliferative assay in vitro (SRB); format: cell-based; details: for IC50: Homo sapiens, SW707, read-out: Cytotoxic activity IC50, Human SW707
Experimental: as §1, §2, §3, §4, §5

[3] = tested on: CCRF/CEM (human leukemia); experiment: Antiproliferative assay in vitro (MTT); format: cell-based; details: for IC50: Homo sapiens, CCRF-CEM, read-out: Cytotoxic activity IC50, Human CCRF/CEM
Experimental: as §1, §2, §3, §4, §5

P388 (mouse leukemia) = experiment: Antiproliferative assay in vitro (MTT); format: cell-based; details: for IC50: Mus musculus, P388, read-out: Cytotoxic activity IC50, Murine P388
Experimental: as §1, §2, §3, §4, §5

[4] = tested on: Balb3T3 (normal mouse fibroblasts); experiment: Antiproliferative assay in vitro (SRB); format: cell-based
Experimental: as §1, §2, §3, §4, §5

[5] = tested on: investigated cancer cell lines (T47D, CCRF/CEM, SW707, P388, Balb3T3); experiment: cells; format: cell-based, human and murine
Experimental: as §1, §2, §3, §4, §5

| SMILES | melting point [°C] | IC50 [1] [µg/mL] | IC50 [2] [µg/mL] | IC50 [3] [µg/mL] | IC50 (P388 (mouse leukemia)) [µg/mL] | Cytotoxic activity IC50, Human T47D [1] | Cytotoxic activity IC50, Human SW707 [2] | Cytotoxic activity IC50, Murine Balb3T3 [4] | Cytotoxic activity IC50, Human CCRF/CEM [3] | Cytotoxic activity IC50, Murine P388 (P388 (mouse leukemia)) | cytotoxic activity in words [5] | cytotoxicity relative to betulin (1) [5] | ID50 value against human leukemia (CCRF/CEM) cell line ([3]; CCRF/CEM, abstract wording) [µg/mL] | selectivity index (SI) ([3]; ratio IC50 of normal fibroblast (Balb3T3) / IC50 on CCRF/CEM) |
| --- | --- | --- | --- | --- | --- | --- | --- | --- | --- | --- | --- | --- | --- | --- |
| C=C(C)C1CC[C@]2(COC(=O)CC)CC[C@]3(C)C(CCC4[C@@]5(C)CC[C@H](O)C(C)(C)C5CC[C@]43C)C12 (some centres unmarked) [Compound 5c, 28-O-Propanoylbetulin] | 160 to 162 | 12.1 ± 4.4 (≈ 24.3 µM) | 29.2 ± 24.4 (≈ 58.5 µM) | 8.1 ± 0.9 (≈ 16.2 µM) | 3.3 ± 0.8 (≈ 6.62 µM) |  |  |  |  |  |  |  |  |  |
| C=C(C)C1CC[C@]2(COC(C)=O)CC[C@]3(C)C(CCC4[C@@]5(C)CC[C@H](OC(=O)OCC#CC)C(C)(C)C5CC[C@]43C)C12 (some centres unmarked) [Compound 8c, 28-O-Acetyl-3-O'-(2-butynyloxycarbonyl)betulin] | 126 to 129 |  |  |  |  | Neg | Neg | Neg | Neg | Neg |  |  |  |  |
| C=C(C)C1CC[C@]2(COC(=O)C#Cc3ccccc3)CC[C@]3(C)C(CCC4[C@@]5(C)CC[C@H](O)C(C)(C)C5CC[C@]43C)C12 (some centres unmarked) [Compound 5b, 28-O-Phenylpropynoylbetulin] | 204 to 206 |  |  | 49 ± 9.8 (≈ 85.8 µM) |  | Neg | Neg | Neg |  | Neg | inactive |  |  |  |
| C=C(C)C1CC[C@]2(COC(=O)C#Cc3ccccc3)CC[C@]3(C)C(CCC4[C@@]5(C)CC[C@H](OC(=O)C#Cc6ccccc6)C(C)(C)C5CC[C@]43C)C12 (some centres unmarked) [Compound 6b, 3,28-O,O'-Di(phenylpropynoyl)betulin] | 91 to 92 |  |  | 66 ± 2.8 (≈ 94.4 µM) |  | Neg | Neg | Neg |  | Neg | inactive |  |  |  |
| C=C(C)C1CC[C@]2(COC(C)=O)CC[C@]3(C)C(CCC4[C@@]5(C)CC[C@H](OC(=O)OCC)C(C)(C)C5CC[C@]43C)C12 (some centres unmarked) [Compound 8d, 28-O-Acetyl-3-O'-(ethoxycarbonyl)betulin] | 200 to 202 |  |  |  |  | Neg | Neg | Neg | Neg | Neg |  |  |  |  |
| C#CCCOC(=O)OC[C@]12CCC(C(=C)C)C1C1CCC3[C@@]4(C)CC[C@H](O)C(C)(C)C4CC[C@@]3(C)[C@]1(C)CC2 (some centres unmarked) [Compound 3b, 28-O-(3-Butynyloxycarbonyl)betulin] | 86 to 88 | 6.9 ± 2.3 (≈ 12.8 µM) | 22.6 ± 11.9 (≈ 41.9 µM) | 5.2 ± 1.4 (≈ 9.65 µM) | 3.6 ± 1.3 (≈ 6.68 µM) |  |  |  |  |  |  |  |  |  |
| C#CCOC(=O)O[C@H]1CC[C@@]2(C)C(CC[C@]3(C)C2CCC2C4C(C(=C)C)CC[C@]4(COC(C)=O)CC[C@]23C)C1(C)C (some centres unmarked) [Compound 8a, 28-O-Acetyl-3-O'-propargyloxycarbonylbetulin] | 188 to 189 |  |  |  |  | Neg | Neg | Neg | Neg | Neg |  |  |  |  |
| C=C(C)C1CC[C@]2(COC(=O)OCC)CC[C@]3(C)C(CCC4[C@@]5(C)CC[C@H](OC(=O)OCC)C(C)(C)C5CC[C@]43C)C12 (some centres unmarked) [Compound 4d, 3,28-O,O'-Di(ethoxycarbonyl)betulin] | 84 to 86 | 69.1 ± 12.4 (≈ 118 µM) |  | 52.6 ± 8.3 (≈ 89.6 µM) | 46.8 ± 21.6 (≈ 79.7 µM) |  | Neg | Neg |  |  |  |  |  |  |
| C=C(C)C1CC[C@]2(COC(=O)OCC)CC[C@]3(C)C(CCC4[C@@]5(C)CC[C@H](O)C(C)(C)C5CC[C@]43C)C12 (some centres unmarked) [Compound 3d, 28-O-Ethoxycarbonylbetulin] | 94 to 96 | 6.6 ± 1.3 (≈ 12.8 µM) | 20.8 ± 14.7 (≈ 40.4 µM) | 4.1 ± 0.2 (≈ 7.96 µM) | 3.8 ± 1.9 (≈ 7.38 µM) |  |  |  |  |  |  |  |  |  |
| C#CCCOC(=O)OC[C@]12CCC(C(=C)C)C1C1CCC3[C@@]4(C)CC[C@H](OC(=O)OCCC#C)C(C)(C)C4CC[C@@]3(C)[C@]1(C)CC2 (some centres unmarked) [Compound 4b, 3,28-O,O'-Di(3-butynyloxycarbonyl)betulin] | 140 to 142 |  |  |  |  | Neg | Neg | Neg | Neg | Neg |  |  |  |  |
| C#CCCOC(=O)O[C@H]1CC[C@@]2(C)C(CC[C@]3(C)C2CCC2C4C(C(=C)C)CC[C@]4(COC(C)=O)CC[C@]23C)C1(C)C (some centres unmarked) [Compound 8b, 28-O-Acetyl-3-O'-(3-butynyloxycarbonyl)betulin] | 118 to 121 |  |  |  | 46.7 ± 16.2 (≈ 80.4 µM) | Neg | Neg | Neg | Neg |  |  |  |  |  |
| C#CCOC(=O)OC[C@]12CCC(C(=C)C)C1C1CCC3[C@@]4(C)CC[C@H](O)C(C)(C)C4CC[C@@]3(C)[C@]1(C)CC2 (some centres unmarked) [Compound 3a, 28-O-Propargyloxycarbonylbetulin] |  | 7.2 ± 1.7 (≈ 13.7 µM) | 9.2 ± 7.1 (≈ 17.5 µM) | 3.2 ± 0.4 (≈ 6.1 µM) | 2.9 ± 0.2 (≈ 5.53 µM) |  |  |  |  |  |  | three to four times more cytotoxic than betulin |  |  |
| C=C(C)[C@@H]1CC[C@]2(COC(C)=O)CC[C@]3(C)[C@H](CC[C@@H]4[C@@]5(C)CC[C@H](O)C(C)(C)[C@@H]5CC[C@]43C)[C@@H]12 [Compound 7a, 28-O-acetylbetulin] |  | 4.9 ± 0.6 (≈ 10.1 µM) | 5.1 ± 2.5 (≈ 10.5 µM) | 3.4 ± 0.3 (≈ 7.01 µM) | 12.5 ± 14.7 (≈ 25.8 µM) |  |  |  |  |  |  |  |  |  |
| C#CCOC(=O)OC[C@]12CCC(C(=C)C)C1C1CCC3[C@@]4(C)CC[C@H](OC(=O)OCC#C)C(C)(C)C4CC[C@@]3(C)[C@]1(C)CC2 (some centres unmarked) [Compound 4a, 3,28-O,O'-Di(propargyloxycarbonyl)betulin] | 125 to 127 |  |  |  | 33.4 ± 1.7 (≈ 55 µM) | Neg | Neg | Neg | Neg |  |  |  |  |  |
| C#CC(=O)OCC12CCC(C(=C)C)C1C1CCC3C4(C)CCC(O)C(C)(C)C4CCC3(C)C1(C)CC2 (centres unmarked) [Compound 5a, 28-O-Propynoylbetulin] |  | 9.1 ± 1.9 (≈ 18.4 µM) | 14.9 ± 3.3 (≈ 30.1 µM) | 0.02 ± 0.001 (≈ 0.0404 µM) | 0.4 ± 0.1 (≈ 0.808 µM) |  |  |  |  |  |  |  | 0.02 (≈ 0.0404 µM) | 15 |
| C=C(C)C1CC[C@]2(COC(=O)OCC#CC)CC[C@]3(C)C(CCC4[C@@]5(C)CC[C@H](O)C(C)(C)C5CC[C@]43C)C12 (some centres unmarked) [Compound 3c, 28-O-(2-Butynyloxycarbonyl)betulin] | 112 to 114 | 20.1 ± 5.3 (≈ 37.3 µM) | 36.9 ± 6.3 (≈ 68.5 µM) | 6.8 ± 2.9 (≈ 12.6 µM) | 5.5 ± 2.8 (≈ 10.2 µM) |  |  |  |  |  |  |  |  |  |
| C=C(C)C1CC[C@]2(COC(C)=O)CC[C@]3(C)C(CCC4[C@@]5(C)CC[C@H](OC(C)=O)C(C)(C)C5CC[C@]43C)C12 (some centres unmarked) [Compound 7b, 3,28-O,O'-diacetylbetulin] |  |  |  | 34.1 ± 6.4 (≈ 64.7 µM) | 40.2 ± 5 (≈ 76.3 µM) | Neg | Neg | Neg |  |  |  |  |  |  |
| C=C(C)C1CC[C@]2(COC(=O)OCC#CC)CC[C@]3(C)C(CCC4[C@@]5(C)CC[C@H](OC(=O)OCC#CC)C(C)(C)C5CC[C@]43C)C12 (some centres unmarked) [Compound 4c, 3,28-O,O'-Di(2-butynyloxycarbonyl)betulin] | 70 to 73 |  |  |  | 50.4 ± 31.1 (≈ 79.4 µM) | Neg | Neg | Neg | Neg |  |  |  |  |  |
| C=C(C)C1CC[C@]2(COC(=O)CC)CC[C@]3(C)C(CCC4[C@@]5(C)CC[C@H](OC(=O)CC)C(C)(C)C5CC[C@]43C)C12 (some centres unmarked) [Compound 6c, 3,28-O,O'-Dipropanoylbetulin] | 142 to 144 | 26.6 ± 6.8 (≈ 47.9 µM) | 42.3 ± 9.4 (≈ 76.2 µM) |  | 68.1 ± 14.8 (≈ 123 µM) |  |  | Neg | Neg |  |  |  |  |  |
| C#CC(=O)OC[C@]12CCC(C(=C)C)C1C1CCC3[C@@]4(C)CC[C@H](OC(=O)C#C)C(C)(C)C4CC[C@@]3(C)[C@]1(C)CC2 (some centres unmarked) [Compound 6a, 3,28-O,O'-Dipropynoylbetulin] | 102 to 104 | 16.2 ± 4.3 (≈ 29.6 µM) | 9.5 ± 1.9 (≈ 17.4 µM) | 9.9 ± 7 (≈ 18.1 µM) | 31.9 ± 1.4 (≈ 58.3 µM) |  |  |  |  |  |  |  |  |  |
